Values after ≈ are worked out from the molar mass of the structure shown. Active and inactive are the calls of the source. No cut-off for these calls is given here.
Experiments:
[1] = tested on: Salmonella enterica; assay: Antimicrobial activity against Salmonella enterica HN-GSS2006-142 by broth microdilution assay; type: functional, organism-based
[2] = tested on: Salmonella enterica; assay: Antimicrobial activity against Salmonella enterica HN-GSS2007-0.033 by broth microdilution assay; type: functional, organism-based
[3] = tested on: Salmonella enterica; assay: Antimicrobial activity against Salmonella enterica HN-GSS2007-0.056 by broth microdilution assay; type: functional, organism-based
[4] = tested on: Salmonella enterica; assay: Antimicrobial activity against Salmonella enterica HN-GSS-2007-057 by broth microdilution assay; type: functional, organism-based
[5] = tested on: Escherichia coli; assay: Antimicrobial activity against Escherichia coli DH10B by broth microdilution assay; type: functional; conditions: K-12 DH10B
[6] = tested on: Escherichia coli; assay: Antimicrobial activity against Escherichia coli DH10B harboring pBR322 by broth microdilution assay; type: functional; conditions: K-12 DH10B
[7] = tested on: Escherichia coli; assay: Antimicrobial activity against Escherichia coli DH10B harboring pBR322 with Salmonella enterica HN-GSS-2007-057 qnrA1 gene by broth microdilution assay; type: functional; conditions: K-12 DH10B
[8] = tested on: Escherichia coli; assay: Antimicrobial activity against Escherichia coli DH10B harboring pBR322 with Salmonella enterica HN-GSS-2007-057 qnrS1 gene by broth microdilution assay; type: functional; conditions: K-12 DH10B
[9] = tested on: Escherichia coli; assay: Antimicrobial activity against Escherichia coli DH10B harboring pBR322 with Salmonella enterica HN-GSS-2007-057 qnrD gene by broth microdilution assay; type: functional; conditions: K-12 DH10B
[10] = tested on: Escherichia coli; assay: Antimicrobial activity against Escherichia coli DH10B harboring p2007057 by broth microdilution assay; type: functional; conditions: K-12 DH10B
[11] = Antimicrobial activity against Salmonella enterica serovar Bovismorbificans by broth microdilution assay; type: functional, Salmonella enterica subsp. enterica serovar Bovismorbificans
[12] = Antimicrobial activity against Salmonella enterica serovar Kentucky by broth microdilution assay

| SMILES | Activity [1] | Activity [2] | Activity [3] | Activity [4] | MIC [5] [µg/mL] | MIC [6] [µg/mL] | MIC [7] [µg/mL] | MIC [8] [µg/mL] | MIC [9] [µg/mL] | MIC [10] [µg/mL] | MIC [11] [µg/mL] | MIC [12] [µg/mL] |
| --- | --- | --- | --- | --- | --- | --- | --- | --- | --- | --- | --- | --- |
| CCn1cc(C(=O)O)c(=O)c2cc(F)c(N3CCNCC3)cc21 [NORFLOXACIN] | Active | Active | Active | Active | 0.015 (≈ 0.047 µM) | 0.015 (≈ 0.047 µM) | 0.25 (≈ 0.783 µM) | 0.5 (≈ 1.57 µM) | 0.06 (≈ 0.188 µM) | 0.125 (≈ 0.391 µM) | – | – |
| CCn1cc(C(=O)O)c(=O)c2ccc(C)nc21 [NALIDIXIC ACID] | – | – | – | – | 2 (≈ 8.61 µM) | 2 (≈ 8.61 µM) | 8 (≈ 34.4 µM) | 8 (≈ 34.4 µM) | 4 (≈ 17.2 µM) | 8 (≈ 34.4 µM) | 8 (≈ 34.4 µM) | – |
| CC1COc2c(N3CCN(C)CC3)c(F)cc3c(=O)c(C(=O)O)cn1c23 (stereo unspecified) [OFLOXACIN] | Active | Active | Active | Active | – | 0.032 (≈ 0.0886 µM) | 0.25 (≈ 0.692 µM) | – | 0.125 (≈ 0.346 µM) | 0.25 (≈ 0.692 µM) | – | – |
| O=C(O)c1cn(C2CC2)c2cc(N3CCNCC3)c(F)cc2c1=O [CIPROFLOXACIN] | – | – | – | – | – | – | – | – | – | – | – | 0.125 (≈ 0.377 µM) |
